US20260022142A1, “MACROCYCLIC IMMUNOMODULATORS” (Bristol-Myers Squibb Company, priority 2022, published 2026)
Numbered stars: 1 amine (or outer) side, 2 acyl side, 3 side chain; on linkers, the order of the positions; unused ones are H or OH. Bridge positions count the residues as written; N and C are the ends. Square brackets hold non-standard residues; d marks the D form. Peptide text beside a SMILES is read from it. * marks the point of attachment. Phe(4-COOH) = N[C@@H](Cc1ccc(C(=O)O)cc1)C(=O)O; Bip = N[C@@H](Cc1ccc(-c2ccccc2)cc1)C(=O)O; NH(CH2)14COOH = O=C(O)CCCCCCCCCCCCCCN*; Phe(3-Me) = Cc1cccc(C[C@H](N)C(=O)O)c1; γGlu = O=C(O)[C@H](CCC(=O)[*:2])N[*:1]; NH(CH2)12COOH = O=C(O)CCCCCCCCCCCCN*; Val(3-OH) = CC(C)(O)[C@H](N)C(=O)O; 4Pal = N[C@@H](Cc1ccncc1)C(=O)O; Cha = N[C@@H](CC1CCCCC1)C(=O)O; Carboxymethyl = O=C(O)C*; Orn = NCCC[C@H](N)C(=O)O; Aun = NCCCCCCCCCCC(=O)O; Dab = NCC[C@H](N)C(=O)O; Dap = NC[C@H](N)C(=O)O; AEEA = NCCOCCOCC(=O)O; Propargyl = C#CC*

Molecular target: T1, PD-1/PD-L1 interaction (PE-labeled human PD-L1-Ig binding to Jurkat cell line over-expressing human PD-1) (Homo sapiens, UniProt Q15116)
T1 construct: expressed in transfected cells; host or cells: Jurkat
Assay: Jurkat-PD-1 Cell Binding High-Content Screening Assay (CBA)
Format: cell-based
Conditions: Jurkat cell line over-expressing human PD-1; PE-labeled PD-L1-Ig 20 nM final; read-out: Jurkat hPD1-PDL1 IC50
Outline: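 Read-out is high-content imaging of cell-bound phycoerythrin-tagged PD-L1-Ig on fixed, Hoechst-counterstained Jurkat cells that over-express human PD-1. Compound exposure lasts 2 h at 37° C before the labeled ligand (20 nM final) is added for a further hour.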

T1 sequence (Q15116 25-288): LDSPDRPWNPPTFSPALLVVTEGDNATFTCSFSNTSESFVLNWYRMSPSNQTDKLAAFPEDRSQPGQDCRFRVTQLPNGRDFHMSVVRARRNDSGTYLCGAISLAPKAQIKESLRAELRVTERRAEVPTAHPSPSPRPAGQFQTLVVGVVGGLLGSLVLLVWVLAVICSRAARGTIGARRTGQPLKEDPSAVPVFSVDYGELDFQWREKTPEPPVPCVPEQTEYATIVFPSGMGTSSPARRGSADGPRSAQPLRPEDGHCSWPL

Row | IC50 | SMILES
1 | 35.1 nM | Cc1cccc(C[C@@H]2NC(=O)[C@H](CC(=O)O)NC(=O)[C@H](Cc3ccc(OCC(=O)O)cc3)NC(=O)[C@H](CN)NC(=O)CSC[C@@H](C(=O)N[C@@H](CCN)C(=O)NCCCCCCCCCCC(=O)O)NC(=O)[C@H](CCC(=O)O)NC(=O)[C@H](C(C)C)NC(=O)[C@H](CC3CCCCC3)NC(=O)[C@H](CCN)NC(=O)[C@@H](CC(C)C)NC(=O)[C@H](CCCN)NC(=O)[C@H](Cc3ccc(OCC(=O)O)cc3)NC(=O)[C@H](Cc3ccc(-c4ccccc4)cc3)NC(=O)[C@H](Cc3ccc(OCC(=O)O)cc3)NC2=O)c1 [Compound 1245] ({CH2CO}-[Dap]Y(Carboxymethyl)D[Phe(3-Me)]Y(Carboxymethyl)[Bip]Y(Carboxymethyl)[Orn][dL][Dab][Cha]VEC[Dab][Aun]-OH; thioether N-14)
2 | 17.6 nM | Cc1cccc(C[C@@H]2NC(=O)[C@H](CC(=O)O)NC(=O)[C@H](Cc3ccc(OCC(=O)O)cc3)NC(=O)[C@H](CN)NC(=O)CSC[C@@H](C(=O)N[C@@H](CCN)C(=O)NCCCCCCCCCCC(=O)O)NC(=O)[C@H](CCC(N)=O)NC(=O)[C@H](C(C)C)NC(=O)[C@H](CC3CCCCC3)NC(=O)[C@H](CCN)NC(=O)[C@@H](CC(C)C)NC(=O)[C@H](CCCN)NC(=O)[C@H](Cc3ccc(OCC(=O)O)cc3)NC(=O)[C@H](Cc3ccc(-c4ccccc4)cc3)NC(=O)[C@H](Cc3ccc(OCC(=O)O)cc3)NC2=O)c1 [Compound 1247] ({CH2CO}-[Dap]Y(Carboxymethyl)D[Phe(3-Me)]Y(Carboxymethyl)[Bip]Y(Carboxymethyl)[Orn][dL][Dab][Cha]VQC[Dab][Aun]-OH; thioether N-14)
3 | 367 nM | C#CCOc1ccc(C[C@@H]2NC(=O)[C@H](C(C)C)NC(=O)[C@H](CC3CCCCC3)NC(=O)[C@H](CCN)NC(=O)[C@@H](CC(C)C)NC(=O)[C@H](CCCN)NC(=O)[C@H](Cc3ccc(OCC(=O)O)cc3)NC(=O)[C@H](Cc3ccc(-c4ccccc4)cc3)NC(=O)[C@H](Cc3ccc(OCC(=O)O)cc3)NC(=O)[C@H](Cc3cccc(C)c3)NC(=O)[C@H](CC(=O)O)NC(=O)[C@H](Cc3ccc(OCC(=O)O)cc3)NC(=O)[C@H](CN)NC(=O)CSC[C@@H](C(=O)N[C@@H](CCN)C(=O)NCCCCCCCCCCC(=O)O)NC2=O)cc1 [Compound 1248] ({CH2CO}-[Dap]Y(Carboxymethyl)D[Phe(3-Me)]Y(Carboxymethyl)[Bip]Y(Carboxymethyl)[Orn][dL][Dab][Cha]VY(Propargyl)C[Dab][Aun]-OH; thioether N-14)
4 | 81.7 nM | C#CCOc1ccc(C[C@@H]2NC(=O)[C@H](C(C)C)NC(=O)[C@H](CC3CCCCC3)NC(=O)[C@H](CCN)NC(=O)[C@@H](CC(C)C)NC(=O)[C@H](CCCN)NC(=O)[C@H](Cc3ccc(OCC(=O)O)cc3)NC(=O)[C@H](Cc3ccc(-c4ccccc4)cc3)NC(=O)[C@H](Cc3ccc(OCC(=O)O)cc3)NC(=O)[C@H](Cc3cccc(C)c3)NC(=O)[C@H](CC(=O)O)NC(=O)[C@H](Cc3ccncc3)NC(=O)[C@H](Cc3ccc(OCC(=O)O)cc3)NC(=O)CSC[C@@H](C(=O)N[C@@H](CCN)C(=O)NCCCCCCCCCCC(=O)O)NC2=O)cc1 [Compound 1249] ({CH2CO}-Y(Carboxymethyl)[4Pal]D[Phe(3-Me)]Y(Carboxymethyl)[Bip]Y(Carboxymethyl)[Orn][dL][Dab][Cha]VY(Propargyl)C[Dab][Aun]-OH; thioether N-14)
5 | 40.4 nM | C#CCOC[C@@H]1NC(=O)[C@H](C(C)C)NC(=O)[C@H](CC2CCCCC2)NC(=O)[C@H](CCN)NC(=O)[C@@H](CC(C)C)NC(=O)[C@H](CCCN)NC(=O)[C@H](Cc2ccc(OCC(=O)O)cc2)NC(=O)[C@H](Cc2ccc(-c3ccccc3)cc2)NC(=O)[C@H](Cc2ccc(OCC(=O)O)cc2)NC(=O)[C@H](Cc2cccc(C)c2)NC(=O)[C@H](CC(=O)O)NC(=O)[C@H](Cc2ccncc2)NC(=O)[C@H](Cc2ccc(OCC(=O)O)cc2)NC(=O)CSC[C@@H](C(=O)N[C@@H](CCN)C(=O)NCCCCCCCCCCC(=O)O)NC1=O [Compound 1250] ({CH2CO}-Y(Carboxymethyl)[4Pal]D[Phe(3-Me)]Y(Carboxymethyl)[Bip]Y(Carboxymethyl)[Orn][dL][Dab][Cha]VS(Propargyl)C[Dab][Aun]-OH; thioether N-14)
6 | 38 nM | C#CCOc1ccc(C[C@@H]2NC(=O)[C@H](C(C)C)NC(=O)[C@H](CC3CCCCC3)NC(=O)[C@H](CCN)NC(=O)[C@@H](CC(C)C)NC(=O)[C@H](CCCN)NC(=O)[C@H](Cc3ccc(OCC(=O)O)cc3)NC(=O)[C@H](Cc3ccc(-c4ccccc4)cc3)NC(=O)[C@H](Cc3ccc(OCC(=O)O)cc3)NC(=O)[C@H](Cc3cccc(C)c3)NC(=O)[C@H](CC(=O)O)NC(=O)[C@H](Cc3ccc(OCC(=O)O)cc3)NC(=O)[C@H](CN)NC(=O)CSC[C@@H](C(=O)N[C@@H](CCN)C(=O)NCCOCCOCC(=O)NCCCCCCCCCCC(=O)O)NC2=O)cc1 [Compound 1251] ({CH2CO}-[Dap]Y(Carboxymethyl)D[Phe(3-Me)]Y(Carboxymethyl)[Bip]Y(Carboxymethyl)[Orn][dL][Dab][Cha]VY(Propargyl)C[Dab][AEEA][Aun]-OH; thioether N-14)
7 | 41.5 nM | Cc1cccc(C[C@@H]2NC(=O)[C@H](CC(=O)O)NC(=O)[C@H](Cc3ccc(OCC(=O)O)cc3)NC(=O)[C@H](CCN)NC(=O)CSC[C@@H](C(=O)N[C@@H](CCN)C(=O)NCCOCCOCC(=O)NCCOCCOCC(=O)N[C@@H](CC(=O)NCCCCCCCCCCCCCCC(=O)O)C(=O)O)NC(=O)[C@H](Cc3c[nH]cn3)NC(=O)[C@H](C(C)(C)O)NC(=O)[C@H](CC3CCCCC3)NC(=O)[C@H](CCN)NC(=O)[C@@H](CC(C)C)NC(=O)[C@H](CCCN)NC(=O)[C@H](Cc3ccc(C(=O)O)cc3)NC(=O)[C@H](Cc3ccc(-c4ccccc4)cc3)NC(=O)[C@H](Cc3ccc(C(=O)O)cc3)NC2=O)c1 [Compound 1252] ({CH2CO}-[Dab]Y(Carboxymethyl)D[Phe(3-Me)][Phe(4-COOH)][Bip][Phe(4-COOH)][Orn][dL][Dab][Cha][Val(3-OH)]HC[Dab][AEEA][AEEA]D(NH(CH2)14COOH)-OH; thioether N-14)
8 | 31.1 nM | Cc1cccc(C[C@@H]2NC(=O)[C@H](CC(=O)O)NC(=O)[C@H](Cc3ccc(OCC(=O)O)cc3)NC(=O)[C@H](CCN)NC(=O)CSC[C@@H](C(=O)N[C@@H](CCN)C(=O)NCCOCCOCC(=O)NCCOCCOCC(=O)N[C@@H](CCC(=O)NCCCCCCCCCCCCCCC(=O)O)C(=O)O)NC(=O)[C@H](Cc3cnc[nH]3)NC(=O)[C@H](C(C)(C)O)NC(=O)[C@H](CC3CCCCC3)NC(=O)[C@H](CCN)NC(=O)[C@@H](CC(C)C)NC(=O)[C@H](CCCN)NC(=O)[C@H](Cc3ccc(C(=O)O)cc3)NC(=O)[C@H](Cc3ccc(-c4ccccc4)cc3)NC(=O)[C@H](Cc3ccc(C(=O)O)cc3)NC2=O)c1 [Compound 1253] ({CH2CO}-[Dab]Y(Carboxymethyl)D[Phe(3-Me)][Phe(4-COOH)][Bip][Phe(4-COOH)][Orn][dL][Dab][Cha][Val(3-OH)]HC[Dab][AEEA][AEEA]E(NH(CH2)14COOH)-OH; thioether N-14)
9 | 10.2 nM | Cc1cccc(C[C@@H]2NC(=O)[C@H](CC(=O)O)NC(=O)[C@H](Cc3ccc(OCC(=O)O)cc3)NC(=O)[C@H](CCN)NC(=O)CSC[C@@H](C(=O)N[C@@H](CCN)C(=O)NCCOCCOCC(=O)NCCOCCOCC(=O)N[C@@H](CC(=O)NCCCCCCCCCCCCC(=O)O)C(=O)O)NC(=O)[C@H](Cc3cnc[nH]3)NC(=O)[C@H](C(C)(C)O)NC(=O)[C@H](CC3CCCCC3)NC(=O)[C@H](CCN)NC(=O)[C@@H](CC(C)C)NC(=O)[C@H](CCCN)NC(=O)[C@H](Cc3ccc(C(=O)O)cc3)NC(=O)[C@H](Cc3ccc(-c4ccccc4)cc3)NC(=O)[C@H](Cc3ccc(C(=O)O)cc3)NC2=O)c1 [Compound 1255] ({CH2CO}-[Dab]Y(Carboxymethyl)D[Phe(3-Me)][Phe(4-COOH)][Bip][Phe(4-COOH)][Orn][dL][Dab][Cha][Val(3-OH)]HC[Dab][AEEA][AEEA]D(NH(CH2)12COOH)-OH; thioether N-14)
10 | 9.9 nM | Cc1cccc(C[C@@H]2NC(=O)[C@H](CC(=O)O)NC(=O)[C@H](Cc3ccc(OCC(=O)O)cc3)NC(=O)[C@H](CCN)NC(=O)CSC[C@@H](C(=O)N[C@@H](CCN)C(=O)NCCOCCOCC(=O)NCCOCCOCC(=O)N[C@@H](CCC(=O)NCC(=O)NCCCCCCCCCCCCC(=O)O)C(=O)O)NC(=O)[C@H](Cc3cnc[nH]3)NC(=O)[C@H](C(C)(C)O)NC(=O)[C@H](CC3CCCCC3)NC(=O)[C@H](CCN)NC(=O)[C@@H](CC(C)C)NC(=O)[C@H](CCCN)NC(=O)[C@H](Cc3ccc(C(=O)O)cc3)NC(=O)[C@H](Cc3ccc(-c4ccccc4)cc3)NC(=O)[C@H](Cc3ccc(C(=O)O)cc3)NC2=O)c1 [Compound 1256] ({CH2CO}-[Dab]Y(Carboxymethyl)D[Phe(3-Me)][Phe(4-COOH)][Bip][Phe(4-COOH)][Orn][dL][Dab][Cha][Val(3-OH)]HC[Dab][AEEA][AEEA][γGlu]G-{NH(CH2)12COOH}; thioether N-14)
11 | 20 nM | Cc1cccc(C[C@@H]2NC(=O)[C@H](CC(=O)O)NC(=O)[C@H](Cc3ccc(OCC(=O)O)cc3)NC(=O)[C@H](CN)NC(=O)CSC[C@@H](C(=O)N[C@@H](CCN)C(=O)NCCOCCOCC(=O)NCCCCCCCCCCC(=O)O)NC(=O)[C@H](CCC(=O)O)NC(=O)[C@H](C(C)C)NC(=O)[C@H](CC(C)C)NC(=O)[C@H](CCN)NC(=O)[C@@H](CC(C)C)NC(=O)[C@H](CCCN)NC(=O)[C@H](Cc3ccc(OCC(=O)O)cc3)NC(=O)[C@H](Cc3ccc(-c4ccccc4)cc3)NC(=O)[C@H](Cc3ccc(OCC(=O)O)cc3)NC2=O)c1 [Compound 1257] ({CH2CO}-[Dap]Y(Carboxymethyl)D[Phe(3-Me)]Y(Carboxymethyl)[Bip]Y(Carboxymethyl)[Orn][dL][Dab]LVEC[Dab][AEEA][Aun]-OH; thioether N-14)
